The NIST ThermoML archive (doi:10.1016/j.jct.2014.05.020)

Assay: excess molar enthalpy (molar enthalpy of mixing); xn = mol fraction of the nth substance listed
Conditions: Liquid, Flow calorimetry

C1CCCCC1 [cyclohexane] + c1ccccc1
excess molar enthalpy [kJ/mol]
Conditions | 298.2 K | 348.2 K | 423.2 K
100 kPa, x2 = 0.1191 | 0.321 | – | –
100 kPa, x2 = 0.2332 | 0.552 | – | –
100 kPa, x2 = 0.2885 | 0.637 | – | –
100 kPa, x2 = 0.3426 | 0.7 | – | –
100 kPa, x2 = 0.3957 | 0.749 | – | –
100 kPa, x2 = 0.4478 | 0.778 | – | –
100 kPa, x2 = 0.4988 | 0.789 | – | –
100 kPa, x2 = 0.5488 | 0.786 | – | –
100 kPa, x2 = 0.5978 | 0.768 | – | –
100 kPa, x2 = 0.6459 | 0.735 | – | –
100 kPa, x2 = 0.6931 | 0.689 | – | –
100 kPa, x2 = 0.7394 | 0.628 | – | –
100 kPa, x2 = 0.7849 | 0.555 | – | –
100 kPa, x2 = 0.8295 | 0.468 | – | –
100 kPa, x2 = 0.9163 | 0.264 | – | –
5000 kPa, x2 = 0.1189 | 0.318 | 0.267 | 0.214
5000 kPa, x2 = 0.1765 | 0.444 | – | 0.301
5000 kPa, x2 = 0.233 | 0.551 | 0.462 | 0.371
5000 kPa, x2 = 0.2882 | 0.637 | – | –
5000 kPa, x2 = 0.3424 | 0.7 | 0.592 | 0.474
5000 kPa, x2 = 0.3955 | 0.744 | – | –
5000 kPa, x2 = 0.4475 | 0.771 | 0.654 | 0.526
5000 kPa, x2 = 0.4985 | 0.787 | – | –
5000 kPa, x2 = 0.5485 | 0.783 | 0.663 | 0.534
5000 kPa, x2 = 0.5976 | 0.763 | – | –
5000 kPa, x2 = 0.6457 | 0.729 | 0.618 | 0.5
5000 kPa, x2 = 0.6929 | 0.693 | – | –
5000 kPa, x2 = 0.7392 | 0.633 | 0.528 | 0.429
5000 kPa, x2 = 0.7847 | 0.557 | – | –
5000 kPa, x2 = 0.8293 | 0.472 | 0.393 | 0.321
5000 kPa, x2 = 0.8732 | 0.37 | – | 0.253
5000 kPa, x2 = 0.9162 | 0.257 | 0.215 | 0.178
5000 kPa, x2 = 0.9585 | – | 0.111 | 0.0924
15000 kPa, x2 = 0.1188 | 0.299 | 0.252 | 0.21
15000 kPa, x2 = 0.1763 | – | – | 0.298
15000 kPa, x2 = 0.2327 | 0.538 | 0.454 | 0.365
15000 kPa, x2 = 0.2879 | 0.626 | – | –
15000 kPa, x2 = 0.3421 | 0.695 | 0.585 | 0.465
15000 kPa, x2 = 0.3951 | 0.743 | – | –
15000 kPa, x2 = 0.4471 | 0.774 | 0.652 | 0.517
15000 kPa, x2 = 0.4981 | 0.788 | – | –
15000 kPa, x2 = 0.5482 | 0.786 | 0.662 | 0.524
15000 kPa, x2 = 0.5972 | 0.768 | – | –
15000 kPa, x2 = 0.6454 | 0.733 | 0.62 | 0.489
15000 kPa, x2 = 0.6926 | 0.685 | – | –
15000 kPa, x2 = 0.7389 | 0.625 | 0.53 | 0.418
15000 kPa, x2 = 0.7845 | 0.549 | – | –
15000 kPa, x2 = 0.8291 | 0.459 | 0.394 | 0.311
15000 kPa, x2 = 0.873 | – | – | 0.242
15000 kPa, x2 = 0.9161 | 0.245 | 0.214 | 0.169
15000 kPa, x2 = 0.9584 | – | 0.108 | 0.0848
25000 kPa, x2 = 0.1187 | 0.301 | 0.269 | 0.212
25000 kPa, x2 = 0.1762 | – | 0.377 | 0.296
25000 kPa, x2 = 0.2325 | 0.538 | 0.47 | 0.365
25000 kPa, x2 = 0.3418 | 0.698 | 0.598 | 0.468
25000 kPa, x2 = 0.4469 | 0.772 | 0.662 | 0.519
25000 kPa, x2 = 0.5479 | 0.784 | 0.668 | 0.523
25000 kPa, x2 = 0.6451 | 0.732 | 0.624 | 0.488
25000 kPa, x2 = 0.7388 | 0.625 | 0.53 | 0.417
25000 kPa, x2 = 0.7843 | 0.551 | – | –
25000 kPa, x2 = 0.829 | 0.464 | 0.39 | –
25000 kPa, x2 = 0.8729 | – | 0.305 | –
25000 kPa, x2 = 0.916 | 0.248 | 0.21 | –
25000 kPa, x2 = 0.9584 | – | 0.101 | –
